We go through six compounds from patent US10842774B2, “Inhibited expression of PD-L1 and enhanced expression of PD-1” (IN Ingredients, Inc., priority 2017, dated 2020).

The subject of data set [1] is PD-L1. The note with it: treatment for metastatic melanoma (Laubli et al. 2015); cited from earlier work.
Data set [2] relates to PD-1. The experiment in a line: Immunofluorescence densitometry of PDCD-1 (PD-1) expression in human macrophage-like THP-1 cells. Format: cell-based. The note with it: for percent increase of PDCD-1 expression: 24 hours at 37° C., compared to controls; for effect on PDCD-1 expression (in words): all concentrations tested, relative to control. As for the experimental part: In the present study, human macrophage-like THP-1 cells were used to determine the effects of active agents.
Immunofluorescence studies were utilized to explore the effects of an active composition including Type-A polymers on PD-L1 and PD-1 proteins. Doubly linked procyanidin type-A polymers (3% by weight) in a dried extract of bark from C. burmanni was prepared as described (Anderson et al., J. Agric. Food Chem. 2004; 52:65-70), or provided by IN Ingredients Inc. (formerly Integrity Nutraceuticals, Columbia, Tenn., USA) as CINNULIN PF. The dried extract composition was solvated in DMSO and stored at −20° C. until use. The antibodies (anti-PD-L1, anti-PD-1) were all obtained from Santa Cruz Biotech. All other reagents used were of the highest grade available in commercial products.
(§1) Human monocytic THP-1 cells were purchased from ATCC, Manassas, Va. and were maintained in RPMI culture medium supplemented with 10% heat inactivated fetal bovine serum, 10 mM Hepes, 0.1 mM MEM non-essential amino acids, 1 mM sodium pyruvate, and […] penicillin/streptomycin in an atmosphere containing 5% CO2 and 95% air at 37° C. THP-1 monocytes were differentiated in macrophages by 48 hour incubation with phorbol 12-myristate 13-acetate (PMA, Sigma, P8139) in RPMI media at a concentration of 10 ng/mL. Cells were incubated with or without the treatment compounds at dosages indicated below at 37° C. for 24 hours. In certain treatment with LPS studies, the cells were incubated in fresh F-12 K medium supplemented with 10 μg/mL LPS and the type-A polymers at a concentration (from 3% extract) of 0 μg/ml, 5 μg/ml, 10 μg/ml, 25 μg/ml, or 50 μg/ml for 24 h at 37° C. In other treatment with LPS studies, the cells were incubated in fresh F-12 K medium supplemented with 10 μg/mL LPS and cinnamtannin D-1 at a concentration 2.5 μg/ml, 5 μg/ml, 10 μg/ml or 25 μg/ml for 24 h at 37° C.
(§2) Cells were rinsed with ice-cold PBS and fixed with 4% paraformaldehyde for 10 min at room temperature, followed by permeabilization with 0.3% Triton x-100 for 10 min. After being washed with PBS three times, cells were incubated for 1 h in PBS containing 10% normal goat serum blocking solution. The cells were subjected to immunofluorescence staining with the specific antibodies (human macrophage-like THP-1 cells analyzed for PD-1 (Santa Cruz Biotech)) overnight at 4° C. The cells were then washed with cold PBS three times for 3 min each, and incubated with Alexa-labeled secondary antibodies (Invitrogen) at room temperature for 1 h. The cells were examined by fluorescence microscopy (a Nikon TE2000-S microscope, Nikon, Tokyo, Japan). For cell counts, five to ten random fields with approximately similar density of cells in each field were selected for analysis in each plate. Fluorescence intensities (with pixel values exceeding five times the standard deviation of the background) from these images were semi-quantitatively analyzed by densitometry (ImageJ software, NIH Image).

Data set [3] concerns PD-1. The description is as above. The class given is cell-based. The note with it: 20 μg/ml, 24 hours at 37° C., compared to controls.
The test system of data set [4] is PD-L1. The experiment in a line: Immunofluorescence densitometry of PD-L1 expression in rat C6 glioma cells. Format: cell-based. The note with it: for percent inhibition of PD-L1 expression: 24 h, compared to controls; for effect on PD-L1 expression (in words): all concentrations tested. The method, then: (§3) Immunofluorescence studies were utilized to explore the effects of an active composition including Type-A polymers on PD-L1 proteins. Purified cinnamtannin B1 and cinnamtannin D1 are obtained from Planta Analytica (New Milford, Conn.). A water extract of cinnamon with at least 3% by weight type-A polymers was obtained from IN Ingredients sold as CINNULIN PF. Each dried material was solvated in DMSO and stored at −20° C. until use. The antibodies (anti-PD-L1) were all obtained from Santa Cruz Biotech. All other reagents used were of the highest grade available in commercial products.
(§4) C6 glioma cells (CCL-107) were purchased from American Type Culture Collection (ATCC; Manassas, Va.). Cell cultures were grown in F-12 K medium (Gibco/Invitrogen) supplemented with 10% horse serum and 2% fetal bovine serum and maintained in a humidified atmosphere containing 5% CO2 and 95% air at 37° C. Cultures were grown to 85% confluency in 75 mm flasks, and cells were subcultured by trypsinization of subconfluent cultures using 0.05% trypsin with EDTA. C6 glioma cells were seeded at a density of 0.5×10^6 cells per 35 mm dish, and cultured for two days. Cells were grown to confluence during the experimental period. Three studies were performed: 1) no other treatment of the cells; 2) treatment with LPS (10 μg/mL); and 3) treatment with TNF-α (10 ng/mL). In some studies, cells were incubated in fresh F-12K medium supplemented with either cinnamtannin D1 (at a concentration of 0 μg/ml, 5 μg/ml, 10 μg/ml, 20 μg/ml, 25 μg/ml, or 50 μg/ml) or cinnamtannin B1 (at a concentration of 0 μg/ml, 5 μg/ml, 10 μg/ml, 20 μg/ml, 25 μg/ml, or 50 μg/ml) for 24 h at 37° C. In certain treatment with LPS studies, the cells were incubated in fresh F-12 K medium supplemented with 10 μg/mL LPS or incubated in fresh F-12 K medium supplemented with 10 μg/mL LPS and cinnamtannin D1 at a concentration 10 μg/ml or 50 μg/ml (5 μg/ml and 25 μg/ml were not tested) for 24 h at 37° C. In certain treatment with TNF-α studies, the cells were incubated in fresh FK-12 medium supplemented with 10 ng/mL TNF-α and cinnamtannin D1 at a concentration 10 μg/ml, 20 μg/ml or 50 μg/ml (5 μg/ml was not tested) for 24 h at 37° C.
as §2, with “(Rat C6 glioma cells studied for PD-L1 (Santa Cruz Biotech); human” for “(human”

In data set [5] the test system is PD-L1. Nature of the data set: LPS-induced overexpression of PD-L1 in rat C6 glioma cells (immunofluorescence densitometry). The note with it: LPS 10 μg/ml; for percent inhibition of LPS-induced overexpression of PD-L1: 24 h, rat C6 glioma cells. Format: cell-based. As for the experimental part: as §3
C6 glioma cells (CCL-107) were purchased from American Type Culture Collection (ATCC; Manassas, Va.). Cell cultures were grown in F-12 K medium (Gibco/Invitrogen) supplemented with 10% horse serum and 2% fetal bovine serum and maintained in a humidified atmosphere containing 5% CO2 and 95% air at 37° C. Cultures were grown to 85% confluency in 75 mm flasks, and cells were subcultured by trypsinization of subconfluent cultures using 0.05% trypsin with EDTA. C6 glioma cells were seeded at a density of 0.5×10^6 cells per 35 mm dish, and cultured for two days. Cells were grown to confluence during the experimental period. Three studies were performed: 1) no other treatment of the cells; 2) treatment with LPS (10 μg/mL); and 3) treatment with TNF-α (10 ng/mL). […]
(§5) Cells were rinsed with ice-cold PBS and fixed with 4% paraformaldehyde for 10 min at room temperature, followed by permeabilization with 0.3% Triton x-100 for 10 min. […] The cells were subjected to immunofluorescence staining with the specific antibodies (Rat C6 glioma cells studied for PD-L1 (Santa Cruz Biotech); human macrophage-like THP-1 cells analyzed for PD-1 (Santa Cruz Biotech)) overnight at 4° C. […] The cells were examined by fluorescence microscopy (a Nikon TE2000-S microscope, Nikon, Tokyo, Japan). […] Fluorescence intensities (with pixel values exceeding five times the standard deviation of the background) from these images were semi-quantitatively analyzed by densitometry (ImageJ software, NIH Image).

Data set [6] relates to PD-L1. Nature of the data set: TNF-α-induced overexpression of PD-L1 in rat C6 glioma cells (immunofluorescence densitometry). The note with it: TNF-α 10 ng/ml; for percent inhibition of TNF-α-induced overexpression of PD-L1: 24 h, rat C6 glioma cells. The class given is cell-based. As for the experimental part:
as §3
as §4, with “In certain treatment with TNF-α studies, the cells were incubated in fresh FK-12 medium supplemented with 10 ng/mL TNF-α and cinnamtannin D1 at a concentration 10 μg/ml, 20 μg/ml or 50 μg/ml (5 μg/ml was not tested) for 24 h at 37° C.” left out
as §5

Data set [7] deals with PD-1. Nature of the data set: Immunofluorescence densitometry of LPS-induced PDCD-1 down expression in human macrophage-like THP-1 cells. Format: cell-based. The note with it: LPS 10 μg/ml; for percent inhibition of LPS-induced PDCD-1 down expression: 24 h. As for the experimental part:
as §1, §2

Turning to “pembrolizumab: antibody therapeutic cited for targeted inhibition of PD-L1 with cardiac side effect”, the “cardiac side effect associated with treatment” value in data set [1] was “acute heart failure due to autoimmune myocarditis”.
Consider `Oc1cc(O)c2c(c1)O[C@@]1(c3ccc(O)c(O)c3)Oc3cc(O)c4c(c3[C@@H]2[C@H]1O)O[C@H](c1ccc(O)c(O)c1)[C@H](O)[C@H]4c1c(O)cc(O)c2c1O[C@H](c1ccc(O)c(O)c1)[C@@H](O)C2` [cinnamtannin D-1, (2R,3R,4S,8S,14R, 15R)-2,8-bis(3,4-dihydroxyphenyl)-4-[(2R,3S)-2-(3,4-dihydroxyphenyl)-3,5,7-trihydroxy-3,4-dihydro-2H-1-benzopyran-8-yl]-3,4-dihydro-2H,8H,14H-8,14-methano-1,7,9-trioxabenzo[6,7]cycloocta[1,2-a]naphthalene-3,5,11,13,15-pentol], for which the “percent increase of PDCD-1 expression” value in data set [2] (2.5 μg/ml) was determined as 18%; in data set [2] (5 μg/ml), 45%; in data set [2] (10 μg/ml) it was 87%; in data set [3] it was 71%. For the same compound, in data set [2], the “effect on PDCD-1 expression (in words)” value is given as “significantly enhanced”. Further, the “percent inhibition of PD-L1 expression” value was determined as 39.9% in data set [4] (5 μg/ml), 66.8% in data set [4] (10 μg/ml), 58.1% in data set [4] (25 μg/ml) and 43.6% in data set [4] (50 μg/ml). Besides, in data set [4], the “effect on PD-L1 expression (in words)” value is on record as “significantly inhibited”. Besides, the “percent inhibition of LPS-induced overexpression of PD-L1” value was 48.9% in data set [5] (10 μg/ml) and 53.0% in data set [5] (50 μg/ml). Also, the “effect on LPS-induced overexpression of PD-L1 (in words)” value in data set [5] (all concentrations tested) is “significantly inhibited”. Also, the “percent inhibition of TNF-α-induced overexpression of PD-L1” value in data set [6] (10 μg/ml) came to 32.0%; in data set [6] (20 μg/ml), 42.2%; in data set [6] (50 μg/ml), 43.9%. Further, in data set [6] (all concentrations tested (10, 20, 50 μg/ml)), the “effect on TNF-α-induced overexpression of PD-L1 (in words)” value is “significantly inhibited”. Further, the “percent inhibition of LPS-induced PDCD-1 down expression” value amounted to 42% in data set [7] (2.5 μg/ml), 98% in data set [7] (5 μg/ml), 81% in data set [7] (10 μg/ml) and 48% in data set [7] (25 μg/ml). Moreover, the “effect on LPS-induced PD-1 down-regulation (in words)” value in data set [7] (all concentrations tested) is given as “significantly improved”.
For the compound `O=c1c(O)c(-c2ccc(O)c(O)c2)oc2cc(O)cc(O)c12` [quercetin], the “percent increase of PDCD-1 expression” value was found to be 33% in data set [2] (10 μg/ml), 57% in data set [2] (50 μg/ml) and 78% in data set [3]. Moreover, in data set [2], the “effect on PDCD-1 expression (in words)” value was “significantly enhanced”.
As for `C[C@@H]1O[C@@H](OC[C@H]2O[C@@H](Oc3c(-c4ccc(O)c(O)c4)oc4cc(O)cc(O)c4c3=O)[C@H](O)[C@@H](O)[C@@H]2O)[C@H](O)[C@H](O)[C@H]1O` [rutin], the “percent increase of PDCD-1 expression” value in data set [2] (10 μg/ml) amounted to 17%; in data set [2] (50 μg/ml) it was 43%; in data set [3], 48%.
For the compound `O=C(O)c1cc(O)c(O)c(O)c1` [garlic acid], the entries for the “percent increase of PDCD-1 expression” value in data set [2] (10 μg/ml), in data set [2] (50 μg/ml) and in data set [3] were 47%, 52% and 71%, respectively. Besides, the “effect on PDCD-1 expression (in words)” value in data set [2] was “significantly enhanced”.
Turning to `Oc1cc(O)c2c(c1)O[C@@]1(c3ccc(O)c(O)c3)Oc3cc(O)c4c(c3[C@@H]2C1O)OC(c1ccc(O)c(O)c1)[C@H](O)C4c1c(O)cc(O)c2c1O[C@H](c1ccc(O)c(O)c1)[C@H](O)C2` (some centres unmarked) [cinnamtannin B-1, cinnamtannin B1], the “percent increase of PDCD-1 expression” value in data set [2] (2.5 μg/ml) worked out at 21%; in data set [2] (5 μg/ml) it was 42%; in data set [2] (10 μg/ml), 83%; in data set [3] it was 62%. Also, the “effect on PDCD-1 expression (in words)” value in data set [2] is reported as “significantly enhanced”. The “percent inhibition of PD-L1 expression” value in data set [4] (5 μg/ml) worked out at 35.7%; in data set [4] (10 μg/ml) it was 60.8%; in data set [4] (25 μg/ml), 54.9%; in data set [4] (50 μg/ml) it was 41.9%. For the same compound, in data set [4], the “effect on PD-L1 expression (in words)” value is “significantly inhibited”.
